# Measurements reported in ChEMBL document CHEMBL1152692, “Synthesis and evaluation of ligands for D2-like receptors: the role of common pharmacophoric groups” (Bioorg Med Chem, 2009).
# Activity calls are given as the source filed them. The rule behind the calls is not given here.
# What was measured:
# D(2) dopamine receptor [1] = target: T1, D(2) dopamine receptor (Homo sapiens, UniProt P14416)
# D(4) dopamine receptor = target: T2, D(4) dopamine receptor (Homo sapiens, UniProt P21917)
# T2 sequence (P21917 whole entry): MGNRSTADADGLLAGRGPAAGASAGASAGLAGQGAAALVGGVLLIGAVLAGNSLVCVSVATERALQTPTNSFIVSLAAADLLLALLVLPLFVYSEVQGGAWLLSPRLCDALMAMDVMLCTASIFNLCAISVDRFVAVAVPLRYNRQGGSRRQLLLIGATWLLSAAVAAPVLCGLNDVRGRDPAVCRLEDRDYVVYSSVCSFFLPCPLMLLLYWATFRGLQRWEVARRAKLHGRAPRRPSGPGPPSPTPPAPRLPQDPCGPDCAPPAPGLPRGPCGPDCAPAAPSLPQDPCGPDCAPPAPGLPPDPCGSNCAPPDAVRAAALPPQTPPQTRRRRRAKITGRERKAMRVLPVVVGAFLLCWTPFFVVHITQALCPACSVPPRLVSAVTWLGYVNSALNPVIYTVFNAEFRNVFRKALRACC
# D(3) dopamine receptor [2] = target: T3, D(3) dopamine receptor (Homo sapiens, UniProt P35462)
# D(2) dopamine receptor [3] = target: T1, D(2) dopamine receptor; remark: listed apart in the source
# [4] = target: T4, D(4) dopamine receptor (Homo sapiens) (UniProt P21917)
# T4 sequence (whole entry): T2 sequence (P21917 whole entry)
# D(3) dopamine receptor [5] = target: T3, D(3) dopamine receptor; remark: listed apart in the source
# T3 sequence (P35462 whole entry): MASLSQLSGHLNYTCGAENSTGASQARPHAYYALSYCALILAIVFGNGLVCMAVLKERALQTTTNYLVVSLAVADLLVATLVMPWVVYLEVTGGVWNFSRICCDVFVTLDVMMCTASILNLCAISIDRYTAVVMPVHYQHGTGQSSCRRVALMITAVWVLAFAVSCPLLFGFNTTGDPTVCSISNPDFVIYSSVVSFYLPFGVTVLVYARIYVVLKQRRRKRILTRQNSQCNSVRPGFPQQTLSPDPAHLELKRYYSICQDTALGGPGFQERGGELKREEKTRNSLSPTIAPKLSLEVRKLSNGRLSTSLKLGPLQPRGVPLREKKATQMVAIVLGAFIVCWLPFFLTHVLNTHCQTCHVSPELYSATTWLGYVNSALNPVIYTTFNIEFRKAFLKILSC
# T1 sequence (P14416 whole entry): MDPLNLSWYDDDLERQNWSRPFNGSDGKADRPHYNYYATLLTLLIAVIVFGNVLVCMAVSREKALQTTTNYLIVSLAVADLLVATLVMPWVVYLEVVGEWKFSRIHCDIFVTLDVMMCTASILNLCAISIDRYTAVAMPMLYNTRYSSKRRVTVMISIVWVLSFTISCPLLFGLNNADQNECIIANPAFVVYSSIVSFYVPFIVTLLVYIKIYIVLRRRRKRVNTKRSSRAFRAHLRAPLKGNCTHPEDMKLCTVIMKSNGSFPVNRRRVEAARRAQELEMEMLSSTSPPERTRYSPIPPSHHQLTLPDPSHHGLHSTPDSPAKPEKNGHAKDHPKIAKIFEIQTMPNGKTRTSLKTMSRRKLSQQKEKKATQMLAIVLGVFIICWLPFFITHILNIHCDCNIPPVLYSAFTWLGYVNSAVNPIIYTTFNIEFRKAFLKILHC
SMILES,Ki (D(4) dopamine receptor) [nM],Activity (D(2) dopamine receptor [3]),Activity (D(3) dopamine receptor [5]),Ki (D(2) dopamine receptor [1]) [nM],Ki (D(3) dopamine receptor [2]) [nM],Activity [4]
OC1(c2ccc(Cl)cc2)CC2CCC(C1)N2Cc1c[nH]c2ncccc12 (stereo not drawn),,,,588,,
Clc1ccc(N2CC3CC2CN3Cc2c[nH]c3ncccc23)cc1 (stereo not drawn),69,,,62,11,
O=C(CN1C2CCC1CC(O)(c1ccc(Cl)cc1)C2)c1ccc(F)cc1 (stereo not drawn),,,,,> 10000,
O[C@]1(c2ccc(Cl)cc2)C[C@H]2CC[C@@H](C1)N2Cc1c[nH]c2ccccc12,3010,,,,25,
OC1(c2ccc(Cl)cc2)CC2CCC(C1)N2CCc1c[nH]c2ccccc12 (stereo not drawn),,,,53,18,
OC1(c2ccc(Cl)cc2)CCN(CCc2c[nH]c3ccccc23)C1 (stereo not drawn),,inactive,,,3070,inactive
O=C(CCCN1CC2CC1N(c1ccc(Cl)cc1)C2)c1ccc(F)cc1 (stereo not drawn),513,,,170,220,

# The next lines start with results.
Ki (D(4) dopamine receptor) [nM],Activity (D(2) dopamine receptor [3]),Activity (D(3) dopamine receptor [5]),SMILES,Ki (D(2) dopamine receptor [1]) [nM],Ki (D(3) dopamine receptor [2]) [nM],Activity [4]
17,,,O=C(CCCN1CCN(c2ccc(Cl)cc2)CC1)c1ccc(F)cc1,,,
56,,,c1cnc(N2CCN(Cc3c[nH]c4ncccc34)CC2)nc1,1170,1500,
18.6,,,Clc1ccc(N2CCCN(Cc3c[nH]c4ncccc34)CC2)cc1,970,370,
816,inactive,,OC1(c2ccc(Cl)cc2)CCN(Cc2c[nH]c3ccccc23)C1 (stereo not drawn),,2870,
1210,inactive,inactive,OC1(c2ccc(Cl)cc2)CCN(Cc2c[nH]c3ncccc23)C1 (stereo not drawn),,,
